Read-outs that look alike come from different tables or passages of the source.
Experiments:
[1] = molecular target: Recombinant ROCK2 (amino acids 1-552) (Homo sapiens (Human), UniProt O75116); assay: Z′-Lyte kinase assay, ROCK2; type: biochemical; details: for inhibition at 1 µM: 1 μM compound, read-out: ROCK2 % inh. @ [conc]
Procedure, shortened: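 Recombinant human ROCK1 (aa 1-535) or ROCK2 (aa 1-552) activity read by Z′-Lyte kinase assay. Percent inhibition at 1 μM compound was normalized to DMSO control; IC50 from 9-point 2-fold serial dilutions by nonlinear regression.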

[2] = test system: ppMlc (T18/S19) levels in A7R5 cells; assay: A7R5 in-cell ELISA (pMLC); type: cell-based, Rat; details: Rattus norvegicus, A7R5, A7R5 cells; for inhibition at 1 µM: 1 μM compound; for inhibition at 1 µM / inhibition at 10 µM: read-out: pMLC % inh A7R5 @ [conc]; for inhibition at 10 µM: 10 μM compound; for IC50: ppMlc (T18/S19)
Procedure, shortened: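 A7R5 rat aortic smooth muscle cells seeded 24 h, then treated 90 min with a 9-point 2-fold compound dilution series. Fixed cells probed for ppMlc (T18/S19) by colorimetric in-cell ELISA; cellular IC50 from nonlinear regression curve fit.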

[3] = 9 points 2-fold serial dilution

Sequence of Recombinant ROCK2 (amino acids 1-552) (O75116 1-552): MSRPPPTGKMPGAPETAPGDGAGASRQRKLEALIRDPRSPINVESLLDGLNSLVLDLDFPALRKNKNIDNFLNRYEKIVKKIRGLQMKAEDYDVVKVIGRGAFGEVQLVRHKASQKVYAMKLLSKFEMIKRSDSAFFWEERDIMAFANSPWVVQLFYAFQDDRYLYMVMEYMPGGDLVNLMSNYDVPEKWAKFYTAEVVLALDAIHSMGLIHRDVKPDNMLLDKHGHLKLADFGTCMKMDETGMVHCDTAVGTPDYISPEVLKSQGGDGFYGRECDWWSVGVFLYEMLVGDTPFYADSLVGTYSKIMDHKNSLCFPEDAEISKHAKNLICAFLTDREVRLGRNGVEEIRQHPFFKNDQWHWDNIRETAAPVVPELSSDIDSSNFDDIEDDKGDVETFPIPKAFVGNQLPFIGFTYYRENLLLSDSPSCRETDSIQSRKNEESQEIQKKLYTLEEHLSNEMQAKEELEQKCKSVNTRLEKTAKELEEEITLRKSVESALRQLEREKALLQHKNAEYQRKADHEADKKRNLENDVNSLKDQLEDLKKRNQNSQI

Cc1cc(Nc2ccc3[nH]ncc3c2)nc(N2CC(C3CCNCC3)c3ccccc32)n1 (centres unmarked) [Example 137, N-(6-methyl-2-(3-(piperidin-4-yl)indolin-1-yl)pyrimidin-4-yl)-1H-indazol-5-amine]
inhibition at 1 µM [1]: 21.6% | inhibition at 1 µM [2]: 24.4%

Cc1cc(Nc2ccc3[nH]ncc3c2)nc(N2CC3(CCNCC3)c3ccccc32)n1 [Example 138, N-(6-methyl-2-(spiro[indoline-3,4′-piperidin]-1-yl)pyrimidin-4-yl)-1H-indazol-5-amine]
inhibition at 1 µM [1]: 9.1% | inhibition at 1 µM [2]: 15.2%

CC1CN(c2ncc(F)c(Nc3ccc4[nH]ncc4c3)n2)CCN1 (centres unmarked) [Example 140, N-(5-fluoro-2-(3-methylpiperazin-1-yl)pyrimidin-4-yl)-1H-indazol-5-amine]
inhibition at 1 µM [1]: 88% | inhibition at 10 µM [2]: 63.5% | IC50 [2]: 734 nM

CCC1CNCCN1c1ncc(F)c(Nc2ccc3[nH]ncc3c2)n1 (centres unmarked) [Example 143, N-(2-(2-ethylpiperazin-1-yl)-5-fluoropyrimidin-4-yl)-1H-indazol-5-amine]
inhibition at 1 µM [1]: 59.3% | inhibition at 10 µM [2]: 49.8% | IC50 [2]: 2150 nM

CCC1CCN(c2ncc(F)c(Nc3ccc4[nH]ncc4c3)n2)CCN1 (centres unmarked) [Example 146, N-(2-(5-ethyl-1,4-diazepan-1-yl)-5-fluoropyrimidin-4-yl)-1H-indazol-5-amine]
inhibition at 1 µM [1]: 71.8% | inhibition at 10 µM [2]: 50.2% | IC50 [2]: 2060 nM

CC(C)C1CN(c2ncc(F)c(Nc3ccc4[nH]ncc4c3)n2)CCN1 (centres unmarked) [Example 147, N-(5-fluoro-2-(3-isopropylpiperazin-1-yl)pyrimidin-4-yl)-1H-indazol-5-amine]
inhibition at 1 µM [1]: 37.6% | inhibition at 10 µM [2]: 47.8%

CCC1CN(c2ncc(F)c(Nc3ccc4[nH]ncc4c3)n2)CCCN1 (centres unmarked) [Example 148, N-(2-(3-ethyl-1,4-diazepan-1-yl)-5-fluoropyrimidin-4-yl)-1H-indazol-5-amine]
inhibition at 1 µM [1]: 55.1% | inhibition at 10 µM [2]: 46%

CCC1CN(c2ncc(F)c(Nc3ccc4[nH]ncc4c3)n2)CCN1 (centres unmarked) [Example 149, N-(2-(3-ethylpiperazin-1-yl)-5-fluoropyrimidin-4-yl)-1H-indazol-5-amine]
inhibition at 1 µM [1]: 71.4% | inhibition at 10 µM [2]: 49.4%

CC1CN(c2ncc(F)c(Nc3ccc4[nH]ncc4c3)n2)CC(C)N1 (centres unmarked) [Example 150, N-(2-(3,5-dimethylpiperazin-1-yl)-5-fluoropyrimidin-4-yl)-1H-indazol-5-amine]
inhibition at 1 µM [1]: 43.2% | inhibition at 10 µM [2]: 44.4% | IC50 [2]: 4970 nM

CC1CN(c2ncc(F)c(Nc3ccc4[nH]ncc4c3)n2)CCCN1 (centres unmarked) [Example 151, N-(5-fluoro-2-(3-methyl-1,4-diazepan-1-yl)pyrimidin-4-yl)-1H-indazol-5-amine]
inhibition at 1 µM [1]: 87.4% | IC50 [1, 3]: 80 nM | inhibition at 10 µM [2]: 55.1%

CC1CCN(c2ncc(F)c(Nc3ccc4[nH]ncc4c3)n2)CCN1 (centres unmarked) [Example 152, N-(5-fluoro-2-(5-methyl-1,4-diazepan-1-yl)pyrimidin-4-yl)-1H-indazol-5-amine]
inhibition at 1 µM [1]: 77% | inhibition at 10 µM [2]: 50.7% | IC50 [2]: 1030 nM

Fc1cnc(N2CCNC3(CC3)C2)nc1Nc1ccc2[nH]ncc2c1 [Example 153, N-(5-fluoro-2-(4,7-diazaspiro[2.5]octan-7-yl)pyrimidin-4-yl)-1H-indazol-5-amine]
IC50 [1, 3]: 556 nM | inhibition at 1 µM [2]: 23.8%

CC1CN(c2ncc(F)c(Nc3ccc4[nH]ncc4c3)n2)C(C)CN1 (centres unmarked) [Example 155, N-(2-(2,5-dimethylpiperazin-1-yl)-5-fluoropyrimidin-4-yl)-1H-indazol-5-amine]
inhibition at 1 µM [1]: 82.1% | inhibition at 1 µM [2]: 25%

Fc1cnc(N2CC3CC(C2)N3)nc1Nc1ccc2[nH]ncc2c1 [Example 157, N-(2-(3,6-diazabicyclo[3.1.1]heptan-3-yl)-5-fluoropyrimidin-4-yl)-1H-indazol-5-amine]
IC50 [1, 3]: 89 nM | inhibition at 1 µM [2]: 27.2%

Fc1cnc(N2CC3CNCC(C3)C2)nc1Nc1ccc2[nH]ncc2c1 [Example 167, N-(2-(3,7-diazabicyclo[3.3.1]nonan-3-yl)-5-fluoropyrimidin-4-yl)-1H-indazol-5-amine]
inhibition at 1 µM [1]: 88.2% | inhibition at 1 µM [2]: 22.5%

Fc1cnc(N2CCN3CCNCC3C2)nc1Nc1ccc2[nH]ncc2c1 (centres unmarked) [Example 173, N-(5-fluoro-2-(octahydro-2H-pyrazino[1,2-a]pyrazin-2-yl)pyrimidin-4-yl)-1H-indazol-5-amine]
inhibition at 1 µM [1]: 17.6% | inhibition at 1 µM [2]: 1.3%

Fc1cnc(N2CC3CNC3C2)nc1Nc1ccc2[nH]ncc2c1 (centres unmarked) [Example 174, N-(2-(3,6-diazabicyclo[3.2.0]heptan-3-yl)-5-fluoropyrimidin-4-yl)-1H-indazol-5-amine]
IC50 [1]: 35 nM | inhibition at 1 µM [2]: 26.3%

Fc1cnc(N2CC3(CCNCC3)c3ccccc32)nc1Nc1ccc2[nH]ncc2c1 [Example 176, N-(5-fluoro-2-(spiro[indoline-3,4′-piperidin]-1-yl)pyrimidin-4-yl)-1H-indazol-5-amine]
inhibition at 1 µM [1]: 0% | inhibition at 1 µM [2]: 14.5%

Fc1cnc(N2CC(C3CCCNC3)c3ccccc32)nc1Nc1ccc2[nH]ncc2c1 (centres unmarked) [Example 177, N-(5-fluoro-2-(3-(piperidin-3-yl)indolin-1-yl)pyrimidin-4-yl)-1H-indazol-5-amine]
inhibition at 1 µM [1]: 9.5% | inhibition at 1 µM [2]: 10.2%

CC1CNCCN1c1ncc(Cl)c(Nc2ccc3[nH]ncc3c2)n1 (centres unmarked) [Example 179, N-(5-chloro-2-(2-methylpiperazin-1-yl)pyrimidin-4-yl)-1H-indazol-5-amine]
inhibition at 1 µM [1]: 77.6% | inhibition at 10 µM [2]: 67.4% | IC50 [2]: 1540 nM

CC1CN(c2ncc(Cl)c(Nc3ccc4[nH]ncc4c3)n2)CCN1 (centres unmarked) [Example 180, N-(5-chloro-2-(3-methylpiperazin-1-yl)pyrimidin-4-yl)-1H-indazol-5-amine]
inhibition at 1 µM [1]: 73.8% | inhibition at 10 µM [2]: 62.6% | IC50 [2]: 1460 nM

CC(C)C1CN(c2ncc(Cl)c(Nc3ccc4[nH]ncc4c3)n2)CCN1 (centres unmarked) [Example 185, N-(5-chloro-2-(3-isopropylpiperazin-1-yl)pyrimidin-4-yl)-1H-indazol-5-amine]
inhibition at 1 µM [1]: 19.7% | inhibition at 10 µM [2]: 41.6%

CCC1CN(c2ncc(Cl)c(Nc3ccc4[nH]ncc4c3)n2)CCCN1 (centres unmarked) [Example 186, N-(5-chloro-2-(3-ethyl 4-diazepan-1-yl)pyrimidin-4-yl)-1H-indazol-5-amine]
inhibition at 1 µM [1]: 47.8% | inhibition at 10 µM [2]: 47.7%

CCC1CCN(c2ncc(Cl)c(Nc3ccc4[nH]ncc4c3)n2)CCN1 (centres unmarked) [Example 188, N-(5-chloro-2-(5-ethyl-1,4-diazepan-1-yl)pyrimidin-4-yl)-1H-indazol-5-amine]
inhibition at 1 µM [1]: 44.9% | inhibition at 10 µM [2]: 47.9%

CCC1CN(c2ncc(Cl)c(Nc3ccc4[nH]ncc4c3)n2)CCN1 (centres unmarked) [Example 190, N-(5-chloro-2-(3-ethylpiperazin-1-yl)pyrimidin-4-yl)-1H-indazol-5-amine]
inhibition at 1 µM [1]: 41% | inhibition at 10 µM [2]: 45.9%

CC1CCN(c2ncc(Cl)c(Nc3ccc4[nH]ncc4c3)n2)CCN1 (centres unmarked) [Example 191, N-(5-chloro-2-(5-methyl-1,4-diazepan-1-yl)pyrimidin-4-yl)-1H-indazol-5-amine]
inhibition at 1 µM [1]: 67% | inhibition at 10 µM [2]: 50.6% | IC50 [2]: 1850 nM

CC1CNCCN(c2ncc(Cl)c(Nc3ccc4[nH]ncc4c3)n2)C1 (centres unmarked) [Example 193, N-(5-chloro-2-(6-methyl-1,4-diazepan-1-yl)pyrimidin-4-yl)-1H-indazol-5-amine]
inhibition at 1 µM [1]: 84.4% | IC50 [1, 3]: 282 nM | inhibition at 1 µM [2]: 32.5% | IC50 [2]: 788 nM

Clc1cnc(N2CC3CCC(C2)N3)nc1Nc1ccc2[nH]ncc2c1 [Example 195, N-(2-(3,8-diazabicyclo[3.2.1]octan-3-yl)-5-chloropyrimidin-4-yl)-1H-indazol-5-amine]
inhibition at 1 µM [1]: 66% | IC50 [1, 3]: 405 nM | inhibition at 1 µM [2]: -3.1%

Cc1nc(N2CCNCC2)nc(Nc2ccc3[nH]ncc3c2)c1C [Example 197, N-(5,6-dimethyl-2-(piperazin-1-yl)pyrimidin-4-yl)-1H-indazol-5-amine]
IC50 [1, 3]: 437 nM | inhibition at 10 µM [2]: 53.8% | IC50 [2]: 581 nM

c1cc(Nc2ccc3[nH]ncc3c2)nc(N2CC3CC(C2)N3)n1 [Example 199, N-(2-(3,6-diazabicyclo[3.1.1]heptan-3-yl)pyrimidin-4-yl)-1H-indazol-5-amine]
IC50 [1, 3]: 151 nM | inhibition at 10 µM [2]: 49.6% | IC50 [2]: 525 nM

Cc1cc(Nc2ccc3[nH]ncc3c2)nc(N2CCNC3(CC3)C2)n1 [Example 212, N-(6-methyl-2-(4,7-diazaspiro[2.5]octan-7-yl)pyrimidin-4-yl)-1H-indazol-5-amine]
inhibition at 1 µM [1]: 91.9% | inhibition at 1 µM [2]: 16.1%

c1cc(Nc2ccc3[nH]ncc3c2)nc(N2CC3CCC(C2)N3)n1 [Example 229, N-(2-(3,8-diazabicyclo[3.2.1]octan-3-yl)pyrimidin-4-yl)-1H-indazol-5-amine]
IC50 [1, 3]: 77 nM | inhibition at 10 µM [2]: 81%

c1ccc(CNC2CCCN(c3nccc(Nc4ccc5[nH]ncc5c4)n3)C2)cc1 (centres unmarked) [Example 234, N-(2-(3-(benzylamino)piperidin-1-yl)pyrimidin-4-yl)-1H-indazol-5-amine]
IC50 [1]: 1800 nM | inhibition at 10 µM [2]: 55.6%

CCC1CNCCN1c1nccc(Nc2ccc3[nH]ncc3c2)n1 (centres unmarked) [Example 235, N-(2-(2-ethylpiperazin-1-yl)pyrimidin-4-yl)-1H-indazol-5-amine]
inhibition at 1 µM [1]: 94.4% | IC50 [1, 3]: 54 nM | IC50 [2]: 510 nM
